Results taken from PMC8876959, “Comparative Evaluation of Radiochemical and Biological Properties of ^131I- and [^99mTc]Tc(CO)3-Labeled RGD Analogues Planned to Interact with the αvβ3 Integrin Expressed in Glioblastoma” (Pharmaceuticals, 2022).

Assay: Ex vivo biodistribution in glioblastoma allograft tumor-bearing (model) rats
Design: species or system rat
Conditions: for Ex vivo biodistribution, Blood / Ex vivo biodistribution, Brain / Ex vivo biodistribution, Heart / Ex vivo biodistribution, Kidneys / Ex vivo biodistribution, Liver / Ex vivo biodistribution, Lungs / Ex vivo biodistribution, Spleen / Ex vivo biodistribution, Stomach: model rats, gamma counter, mean ± SEM, n = 3
Method: Adult male Sprague Dawley rats (280–320 g) were maintained under controlled environmental conditions (12 h light-dark cycle; constant temperature 21 ± 2 °C), with free access to water and food. Tumorigenic glioblastoma cells were implanted in the right frontal cortex, following specific coordinates (referred to bregma): anteroposterior = 1.0 mm; lateral = 3.0 mm; depth = 5.0 mm. An aliquot of culture medium (10 µL) containing 1 × 10^6 C6 cells in suspension was injected slowly (1 µL/min) using a Hamilton syringe positioned on a stereotaxic surgery frame. In the control group, only the culture medium, without cells, was injected. An interval of 20 days after cell inoculation was allowed for tumor development.
The ex vivo biodistribution of each radiolabeled peptide (4 MBq; 0.2 mL) was evaluated at 15, 60, and 240 min after IV injection in control and tumor-bearing animals (n = 3 per group, per time point). The molar activities in this study were 0.68 and 16.2 MBq/nmol for the iodine and tricarbonyl-labeled peptides, respectively. Animals were deeply anesthetized and sacrificed at the corresponding biodistribution time point. Brain, spleen, heart, stomach, liver, lungs, kidneys, and blood were collected and weighed. Then, their radioactivities were determined using the above-mentioned automatic gamma counter. The radioactivity of each organ/tissue was evaluated as the percentage of injected dose per gram of organ/tissue (% ID/g), using the same injected dose activity as a standard.

Substance: [^99mTc]Tc(CO)3-GRGDHV
- Ex vivo biodistribution, Blood (15 min after IV injection): 10.28 ± 2.93 %ID/g
- Ex vivo biodistribution, Blood (60 min after IV injection): 8.91 ± 0.94 %ID/g
- Ex vivo biodistribution, Blood (240 min after IV injection): 10.32 ± 1.51 %ID/g
- Ex vivo biodistribution, Brain (15 min after IV injection): 0.71 ± 0.01 %ID/g
- Ex vivo biodistribution, Brain (60 min after IV injection): 0.81 ± 0.01 %ID/g
- Ex vivo biodistribution, Brain (240 min after IV injection): 1.57 ± 0.11 %ID/g
- Ex vivo biodistribution, Heart (15 min after IV injection): 5.40 ± 0.48 %ID/g
- Ex vivo biodistribution, Heart (60 min after IV injection): 5.14 ± 0.73 %ID/g
- Ex vivo biodistribution, Heart (240 min after IV injection): 4.80 ± 0.11 %ID/g
- In vivo radiochemical stability (judged from ex vivo biodistribution (stomach uptake) in rats): better in vivo radiochemical stability
- Ex vivo biodistribution, Kidneys (15 min after IV injection): 58.33 ± 1.43 %ID/g
- Ex vivo biodistribution, Kidneys (60 min after IV injection): 58.99 ± 1.13 %ID/g
- Ex vivo biodistribution, Kidneys (240 min after IV injection): 40.44 ± 2.99 %ID/g
- Ex vivo biodistribution, Liver (15 min after IV injection): 7.04 ± 0.68 %ID/g
- Ex vivo biodistribution, Liver (60 min after IV injection): 8.29 ± 0.43 %ID/g
- Ex vivo biodistribution, Liver (240 min after IV injection): 11.62 ± 1.01 %ID/g
- Ex vivo biodistribution, Lungs (15 min after IV injection): 10.03 ± 2.56 %ID/g
- Ex vivo biodistribution, Lungs (60 min after IV injection): 7.83 ± 0.20 %ID/g
- Ex vivo biodistribution, Lungs (240 min after IV injection): 9.38 ± 1.89 %ID/g
- Ex vivo biodistribution, Spleen (15 min after IV injection): 3.74 ± 0.33 %ID/g
- Ex vivo biodistribution, Spleen (60 min after IV injection): 2.88 ± 0.32 %ID/g
- Ex vivo biodistribution, Spleen (240 min after IV injection): 4.12 ± 0.79 %ID/g
- Ex vivo biodistribution, Stomach (15 min after IV injection): 4.44 ± 1.25 %ID/g
- Ex vivo biodistribution, Stomach (60 min after IV injection): 7.28 ± 0.88 %ID/g
- Ex vivo biodistribution, Stomach (240 min after IV injection): 14.60 ± 2.07 %ID/g
